Format in all cases: functional
Holding throughout (conditions): Homo sapiens, read-out: LD50 (the source's name)

One assay deals with COLO 205. Put plainly: Tested for its in vitro cytotoxicity against COLO-205 cells.
The next assay has as its system HEp-2. Put plainly: Tested for its in vitro cytotoxicity against HEP-2 cells.
The next assay deals with HeLa. Put plainly: Tested for its in vitro cytotoxicity against Hela cells.
Assay [1] can be described thus: Tested for its in vitro cytotoxicity against KB cells.

In brackets after ≈: the same amount, converted by molar mass.

For the compound `NCCCSCC(COc1cccc(-c2ccccc2)c1)SCCCN` (stereo unspecified), the CC50 in the assay on COLO 205 turned out to be 1.41 µg/mL (≈ 3.61 µM); in the assay with HEp-2, 1.36 µg/mL (≈ 3.48 µM); in the assay with HeLa, 1.2 µg/mL (≈ 3.07 µM); in assay [1], 1.55 µg/mL (≈ 3.97 µM).

On to `NCCCSCC(COc1ccc(-c2ccccc2)cc1)SCCCN` (stereo unspecified), for which the CC50 in the assay on COLO 205 was determined as 1.05 µg/mL (≈ 2.69 µM); in the assay on HEp-2, 1.45 µg/mL (≈ 3.71 µM); in the assay with HeLa, 0.68 µg/mL (≈ 1.74 µM); in assay [1] it was 0.92 µg/mL (≈ 2.36 µM).

As for `NCCCSCC(COc1ccc(NC(=O)c2cc(-c3ccccc3)nc3ccccc23)cc1)SCCCN` (stereo unspecified), the figures for the CC50 with COLO 205, in the assay with HEp-2 and with HeLa were 5.2 µg/mL (≈ 9.27 µM), 1.92 µg/mL (≈ 3.42 µM) and 6.18 µg/mL (≈ 11 µM), respectively.

Values taken from ChEMBL document CHEMBL1127211, “Biselectrostatic interaction with DNA as potential anti-turmor agents: novel 2,11-diamino-5,8-dithiaundecane derivatives” (1993).
